Source: PubChem BioAssay AID2060604 (Molecular Pharmacology Branch, DTP, NCI, 2025)

Test system: 379773-124-R-J2-PDC complex spheroids, viability % test/control
Assay: Anticancer human tumor 379773-124-R-J2-PDC patient-derived endometrial carcinoma cell line growth inhibition [CLK]
Conditions: for IC50: curve of first compound; for viability, T/C: stronger effect = lower value
Description: A high-throughput screen of multi-cell type tumor spheroids was designed to identify active combinations of […] and targeted small molecules. Complex spheroids include a stromal component modeled by human endothelial cells (HUVEC) and fibroblasts modeled by human mesenchymal stem cells (MSCs). The concentration ranges selected for each drug and investigational agent were based upon clinically achievable concentrations if the clinical Cmax of the agent was known.
Compounds. The drugs and investigational agents: cirtuvivint (SM08502; NSC835563), CC-671 (NSC850746), vemurafenib (NSC761431), tapotoclax (NSC804041), sotorasib (NSC818433), adagrasib (NSC831453), MRTX-1133 (NSC836407), BAY2416964 (NSC825713), copanlisib (NSC816437), inavolisib (NSC800729), abemaciclib (NSC768073), osimertinib (NSC779217), entinostat (NSC756642), eltanexor (KPT-8602, NSC794443), venetoclax (NSC766270), ceralasertib (NSC777638), bortezomib (NSC756655), olaparib (NSC753686), talazoparib (NSC767125), alisertib (NSC759677), peposertib (NSC802822), gemcitabine (NSC613327), 5-fluorouracil (NSC19893), SN-38 (NSC673596), oxaliplatin (NSC266046), paclitaxel (NSC125973), and doxorubicin (NSC123127), were obtained from the National Cancer Institute (NCI) Developmental Therapeutics Program Chemical Repository. The FDA-approved anticancer drug set is available from the Developmental Therapeutics Program at https://dtp.cancer.gov/organization/dscb/obtaining/available plates.htm. […] The stock solutions were prepared in dimethyl sulfoxide (DMSO, Sigma-Aldrich, St. Louis, MO, cat. D2650), except for the platinum complexes which were prepared in saline (Quality Biological, Gaithersburg, MD, cat. 114-055-101), at 800-fold the tested concentration and stored at -70 degrees C prior to their use. All drugs and investigational agents were tested over a range starting from a high concentration at or near the clinical Cmax and decreasing in half-log increments. If the clinical Cmax for an agent had not been determined, the highest concentration tested was 10 microM.
Cell Culture. All cells were maintained in an incubator at 37 degrees C and 5% CO2 with 95% humidity. The PDC lines were cultured according to standard operating procedures established by the NCI PDMR. Briefly, all PDCs were thawed and cultured in Matrigel-coated flasks prepared with a working solution of 1X Ham's F-12 nutrient mix, without supplementation (Invitrogen, Waltham, MA, cat. 11765054), 100 U/mL penicillin-streptomycin (Invitrogen, cat. 15140122), and 2.5% Matrigel (Corning Inc., Corning, NY, cat. 354248) for the first three passages. The 947758-054-R-J2-PDC line was cultured in 6B/Colon 1A media, which includes advanced DMEM/F-12 (Thermo Fisher Scientific, cat. 12634028), 10 mM HEPES (Thermo Fisher Scientific, cat. 15630080), 1X GlutaMAX supplement (Thermo Fisher Scientific, cat. 35050061), 0.1 mg/mL primocin (InvivoGen, cat. ant-pm-2), 10% defined fetal bovine serum, heat inactivated (HyClone Laboratories Inc., cat. SH30070.03HI), 1.25 mM N-Acetyl-L-cysteine (Sigma-Aldrich, cat. A9165), 10 mM nicotinamide (Sigma-Aldrich, cat. N0636), 1X B-27 supplement (Thermo Fisher Scientific, cat. 17504044), 1X N-2 supplement (Thermo Fisher Scientific, cat. 17502048), and 10 microM Y-27632 dihydrochloride (Tocris Bioscience, cat. 1254). The 876862-298-R-J1-PDC was cultured in 6E media, which includes all 6B/Colon 1A media components plus 50% L-WRN conditioned media (ATCC, cat. CRL-3276), 50 ng/mL recombinant human EGF recombinant protein (hEGF; Thermo Fisher Scientific, cat. PHG0311), 10 ng/mL recombinant human fibroblast growth factor 10 (hGFG-10; PeproTech, cat. 100-26), 1 ng/mL recombinant human fibroblast growth factor 2 (hFGF-2; PeproTech, cat. 100-18B), and 1 µM prostaglandin E2 (PGE2; Tocris, cat. 2296). The 227483-062-R1-J1-PDC line was cultured in Panc media, containing all 6E components except hFGF-2, with the addition of 500 nM SB-431542 (Selleckchem, cat. S1067) and 10 nM gastrin (Tocris, cat. 3006). […]

[1] = second compound 0.0316 µM, first compound 0.0316 µM
[2] = second compound 0.0316 µM, first compound 0.1 µM
[3] = second compound 0.0316 µM, first compound 0.316 µM
[4] = second compound 0.0316 µM, first compound 1 µM
[5] = second compound 0.0316 µM, first compound 3.16 µM
[6] = second compound 0.0316 µM, first compound 10 µM
[7] = second compound 0.1 µM, first compound 0.0316 µM
[8] = second compound 0.1 µM, first compound 0.1 µM
[9] = second compound 0.1 µM, first compound 0.316 µM
[10] = second compound 0.1 µM, first compound 1 µM
[11] = second compound 0.1 µM, first compound 3.16 µM
[12] = second compound 0.1 µM, first compound 10 µM
[13] = second compound 0.316 µM, first compound 0.0316 µM
[14] = second compound 0.316 µM, first compound 0.1 µM
[15] = second compound 0.316 µM, first compound 0.316 µM
[16] = second compound 0.316 µM, first compound 1 µM
[17] = second compound 0.316 µM, first compound 3.16 µM
[18] = second compound 0.316 µM, first compound 10 µM
[19] = second compound 1 µM, first compound 0.0316 µM
[20] = second compound 1 µM, first compound 0.1 µM
[21] = second compound 1 µM, first compound 0.316 µM
[22] = second compound 1 µM, first compound 1 µM
[23] = second compound 1 µM, first compound 3.16 µM
[24] = second compound 1 µM, first compound 10 µM
[25] = second compound 3.16 µM, first compound 0.0316 µM
[26] = second compound 3.16 µM, first compound 0.1 µM
[27] = second compound 3.16 µM, first compound 0.316 µM
[28] = second compound 3.16 µM, first compound 1 µM
[29] = second compound 3.16 µM, first compound 3.16 µM
[30] = second compound 3.16 µM, first compound 10 µM
[31] = second compound 10 µM, first compound 0.0316 µM
[32] = second compound 10 µM, first compound 0.1 µM
[33] = second compound 10 µM, first compound 0.316 µM
[34] = second compound 10 µM, first compound 1 µM
[35] = second compound 10 µM, first compound 3.16 µM
[36] = second compound 10 µM, first compound 10 µM
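Further: compound exposure lasted seven days before the viability readout.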
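Wherever viability, T/C is given: 100% = DMSO vehicle control wells.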

CC1(C)CCC(CN2CCN(c3ccc(C(=O)NS(=O)(=O)c4ccc(NCC5CCOCC5)c([N+](=O)[O-])c4)c(Oc4cnc5[nH]ccc5c4)c3)CC2)=C(c2ccc(Cl)cc2)C1 + CN1CCN(c2cc(C(=O)Nc3cc4cc(-c5cnn(C)c5)ccc4cn3)ccn2)CC1
IC50 (second compound 0.0316 µM): 4750 nM | IC50 (second compound 0.1 µM): 5030 nM | IC50 (second compound 0.316 µM): < 31.6 nM | IC50 (second compound 1 µM): < 31.6 nM | IC50 (second compound 3.16 µM): < 31.6 nM | IC50 (second compound 10 µM): < 31.6 nM | viability, T/C [1]: 99.5% | viability, T/C [2]: 88.1% | viability, T/C [3]: 86% | viability, T/C [4]: 108% | viability, T/C [5]: 74.1% | viability, T/C [6]: 6.08% | viability, T/C [7]: 84.1% | viability, T/C [8]: 81.3% | viability, T/C [9]: 88.3% | viability, T/C [10]: 87.8% | viability, T/C [11]: 83.1% | viability, T/C [12]: 1.06% | viability, T/C [13]: 26.2% | viability, T/C [14]: 26.1% | viability, T/C [15]: 26.7% | viability, T/C [16]: 28.9% | viability, T/C [17]: 24.3% | viability, T/C [18]: 1.02% | viability, T/C [19]: 0.19% | viability, T/C [20]: 1.14% | viability, T/C [21]: 0.4% | viability, T/C [22]: 0.16% | viability, T/C [23]: 0.08% | viability, T/C [24]: 0.07% | viability, T/C [25]: 0.86% | viability, T/C [26]: 0.92% | viability, T/C [27]: 2.05% | viability, T/C [28]: 0.09% | viability, T/C [29]: 0.64% | viability, T/C [30]: 0.09% | viability, T/C [31]: 0.1% | viability, T/C [32]: 0.14% | viability, T/C [33]: 0.15% | viability, T/C [34]: 0.61% | viability, T/C [35]: 3.58% | viability, T/C [36]: 0.16%

Nc1ccn(C2OC(CO)C(O)C2(F)F)c(=O)n1 (stereo unspecified) + CN1CCN(c2cc(C(=O)Nc3cc4cc(-c5cnn(C)c5)ccc4cn3)ccn2)CC1
IC50 (second compound 0.0316 µM): < 31.6 nM | IC50 (second compound 0.1 µM): < 31.6 nM | IC50 (second compound 0.316 µM): < 31.6 nM | IC50 (second compound 1 µM): < 31.6 nM | IC50 (second compound 3.16 µM): < 31.6 nM | IC50 (second compound 10 µM): < 31.6 nM | viability, T/C [1]: 10.9% | viability, T/C [2]: 5.93% | viability, T/C [3]: 5% | viability, T/C [4]: 6.45% | viability, T/C [5]: 6.59% | viability, T/C [6]: 3.28% | viability, T/C [7]: 10.4% | viability, T/C [8]: 5.09% | viability, T/C [9]: 4.66% | viability, T/C [10]: 5.3% | viability, T/C [11]: 4.72% | viability, T/C [12]: 1.97% | viability, T/C [13]: 7.96% | viability, T/C [14]: 4.03% | viability, T/C [15]: 2.64% | viability, T/C [16]: 2.49% | viability, T/C [17]: 1.51% | viability, T/C [18]: 0.83% | viability, T/C [19]: 0.1% | viability, T/C [20]: 0.12% | viability, T/C [21]: 0.11% | viability, T/C [22]: 0.05% | viability, T/C [23]: 1.02% | viability, T/C [24]: 0.05% | viability, T/C [25]: 0.08% | viability, T/C [26]: 0.11% | viability, T/C [27]: 0.12% | viability, T/C [28]: 0.07% | viability, T/C [29]: 0.82% | viability, T/C [30]: 0.09% | viability, T/C [31]: 0.18% | viability, T/C [32]: 1.56% | viability, T/C [33]: 0.87% | viability, T/C [34]: 1.76% | viability, T/C [35]: 0.56% | viability, T/C [36]: 0.13%

C#Cc1c(F)ccc2cc(O)cc(-c3ncc4c(N5CC6CCC(C5)N6)nc(OCC56CCCN5CC(F)C6)nc4c3F)c12 (stereo unspecified) + CN1CCN(c2cc(C(=O)Nc3cc4cc(-c5cnn(C)c5)ccc4cn3)ccn2)CC1
IC50 (second compound 0.0316 µM): > 10000 nM | IC50 (second compound 0.1 µM): > 10000 nM | IC50 (second compound 0.316 µM): < 31.6 nM | IC50 (second compound 1 µM): < 31.6 nM | IC50 (second compound 3.16 µM): < 31.6 nM | IC50 (second compound 10 µM): < 31.6 nM | viability, T/C [1]: 88.4% | viability, T/C [2]: 91.4% | viability, T/C [3]: 93% | viability, T/C [4]: 87.5% | viability, T/C [5]: 103% | viability, T/C [6]: 99.3% | viability, T/C [7]: 89.7% | viability, T/C [8]: 84.5% | viability, T/C [9]: 75.7% | viability, T/C [10]: 77% | viability, T/C [11]: 99.1% | viability, T/C [12]: 72.8% | viability, T/C [13]: 35.7% | viability, T/C [14]: 27.4% | viability, T/C [15]: 35.1% | viability, T/C [16]: 33.3% | viability, T/C [17]: 32.5% | viability, T/C [18]: 28.4% | viability, T/C [19]: 0.19% | viability, T/C [20]: 0.22% | viability, T/C [21]: 0.24% | viability, T/C [22]: 1.34% | viability, T/C [23]: 0.78% | viability, T/C [24]: 0.14% | viability, T/C [25]: 0.14% | viability, T/C [26]: 2.72% | viability, T/C [27]: 0.76% | viability, T/C [28]: 2.34% | viability, T/C [29]: 1.68% | viability, T/C [30]: 1.37% | viability, T/C [31]: 2.32% | viability, T/C [32]: 0.23% | viability, T/C [33]: 0.32% | viability, T/C [34]: 3.73% | viability, T/C [35]: 1.56% | viability, T/C [36]: 0.31%
